# From patent publication US11992467B2, “Promotion of lymphatic function” (Universitaet Basel, priority 2014, dated 2024)
# Assays:
# lymphangiogenesis = settings: experimental mouse lymphedema models; cited from earlier work
# A2780 = settings: cited from earlier work
# K562 = settings: cited from earlier work
# Plasmodium = settings: cited from earlier work
# fungi = settings: cited from earlier work
# LEC = assay: Sprouting assay (LEC-coated microcarriers in collagen); assay type: cell-based, human; settings: 24 hours
# Protocol: To investigate cell sprouting, cytodex microcarriers were coated with LECs (Schulz et al. (2012) Phenotype-based high-content chemical library screening identifies statins as inhibitors of in vivo lymphangiogenesis. Proc Natl Acad Sci USA 109, E2665-2674). Then, the microcarriers were embedded in a collagen solution and media containing 0.1% DMSO, 20 ng/ml VEGF-A, or different concentrations of the IG extract, its subfractions or iridals were added for 24 hours. The induced sprouts were imaged at 4× magnification (Molecular Devices ImageXpress Micro HCS microscope MD2, Photometrics CoolSNAP HQ camera, Photometrics, Tucson, AZ, USA). Image analysis was performed using ImageJ64 and the number of sprouts per microcarrier was counted and plotted. Three replicates per condition were performed.
# [1] = test system: guinea pig mesenteric lymphatic vessels; assay: Ex vivo lymphatic contractility assay
# Source text: Guinea pigs (7-15 days of age) were killed by decapitation during deep anaesthesia induced by inhalation of isoflurane. The small intestine with its attached mesentery was rapidly dissected and placed in a physiological saline solution (PSS) of the following composition (mM): CaCl2, 2.5; KCl, 5; MgCl2, 2; NaCl, 120; NaHCO3, 25; NaH2PO4, 1; glucose, 11. The pH was maintained at 7.4 by constant bubbling with 95% O2/5% CO2. […]
# The organ bath was then mounted on the stage of an inverted microscope and continuously superfused at a flow rate of 3 ml/min with PSS heated to 36° C. […] A custom-written MatLab program detected vessel diameter changes on the video image and recorded them as a function of time, allowing measurement of frequency and amplitude of contractions. Decreases in vessel diameter greater than 50% of the diastolic diameter were counted as contractions. Preparations were allowed a 30 min equilibration period prior to drug application during which pumping was assessed. […] A 5 min control period of contractile activity was recorded prior to a 1 to 5 min application of iripallidal and effects on vessel contraction frequency were assessed during the ten subsequent minutes.
# [2] = test system: cytochrome P450 1A isoenzyme; settings: cited from earlier work
molecule,measurement,setting,value
CC1=C(/C=C/C(C)=C\C=C\C(C)=C\C(=O)O)C(C)(C)CCC1 [9-cis retinoic acid],lymphangiogenesis,lymphangiogenesis,promote lymphangiogenesis
CC(C)=CCC/C(C)=C/CC/C(C)=C/CC[C@@]1(C)[C@H](CCCO)/C(=C(/C)C=O)CC[C@]1(C)O [Iridal],activity on human tumor cell line,A2780,interesting activity on two human tumor cell lines
same,activity on human tumor cell line,K562,interesting activity on two human tumor cell lines
same,antiplasmodial activity,Plasmodium,antiplasmodial activity
same,antifungal activity,fungi,no antifungal activity
CC(C)=CCC/C(C)=C/CC(O)/C(C)=C/CC[C@@]1(C)[C@H](CCCO)/C(=C(\C)C=O)CC[C@]1(C)O (some centres unmarked) [Iridobelamal A],Minimal effective concentration in sprouting assay,LEC,3 µM
C=C1CC[C@H](C)C(C)(C)[C@@H]1/C=C/C(C)=C/CC[C@@]1(CO)[C@H](CCCO)/C(=C(/C)C=O)CC[C@]1(C)O [Iriflorental],Minimal effective concentration in sprouting assay,LEC,0.03 µM
CC1=CC[C@H](C)C(C)(C)[C@@H]1/C=C/C(C)=C/CC[C@@]1(CO)[C@H](CCCO)/C(=C(/C)C=O)CC[C@]1(C)O [Iripallidal],Minimal effective concentration in sprouting assay,LEC,0.03 µM
same,"vessels with small, but significant increase in contraction frequency",[1]; 10 μM,5 out of 6
same,"vessels with small, but significant increase in contraction frequency",[1]; 30 μM (data not shown),4 out of 4
COc1cc(-c2coc3cc(O)c(OC)c(O)c3c2=O)cc(O)c1OC [irigenin],inhibition of cytochrome P450 1A isoenzyme,[2],potent inhibitors
O=c1c(-c2ccc(O)cc2)coc2cc3c(c(O)c12)OCO3 [irilone],inhibition of cytochrome P450 1A isoenzyme,[2],potent inhibitors
C=C1CC[C@H](C)C(C)(C)[C@@H]1CC/C(C)=C/CC[C@@]1(C)[C@H](CCCO)/C(=C(/C)C=O)CC[C@]1(C)O [γ-irigermanal],Minimal effective concentration in sprouting assay,LEC,0.01 µM
Cis isomer of α-dehydroirigermanal,Minimal effective concentration in sprouting assay,LEC,0.01 µM
Irigermanone,Minimal effective concentration in sprouting assay,LEC,10 µM
Irisgermanical C,Minimal effective concentration in sprouting assay,LEC,1 µM
iriflogenin,inhibition of cytochrome P450 1A isoenzyme,[2],potent inhibitors
